Activity calls are given as the source filed them.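 How the source made its calls: active means fitted curve falls past a set limit of signal loss at no more than twice the top dose; inconclusive means flat fit between 30 and 70% signal loss, or poor fit; inactive means signal rise, flat within 30%, or crossing too high.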

One experiment can be described thus: ATP-based viability loss in HEK293T cells – cell-based, CellTiter-Glo luminescence, cherry-pick, set 3, cytotoxicity control, dose response (AID 720588). As to conditions: HEK293T viability, CellTiter-Glo ATP luminescence, 72 h; at 2.85 µM (top of the series). For orientation: ATP-based viability assays read luminescence as a measure of living cells.
On to `COC(=O)C[C@@H]1CC[C@@H]2[C@H](COc3ccc(NC(=O)Nc4cccc(Cl)c4)cc3C(=O)N2C)O1`, for which the activity change, negative = cytotoxicity is 39.1% (inactive).

The same experiment, now with this note: HEK293T viability, CellTiter-Glo ATP luminescence, 72 h; at 8 µM (top of the series).
In the case of `C[C@H](CO)N1C[C@H](C)[C@H](CN(C)Cc2ccc(C(F)(F)F)cc2)Oc2ccc(NC(=O)CCCCCC(=O)Nc3ccccc3N)cc2CC1=O`, the activity change, negative = cytotoxicity is 50% (inactive).

Still in this experiment, the particulars now being: HEK293T viability, CellTiter-Glo ATP luminescence, 72 h; at 21 µM (top of the series).
Consider `Cc1ccc(S(=O)(=O)N(C)C[C@@H]2Oc3ccc(NC(=O)CCCCCC(=O)Nc4ccccc4N)cc3CC(=O)N([C@@H](C)CO)C[C@@H]2C)cc1`, for which the activity change, negative = cytotoxicity was 3.82% (inactive).
Regarding `COc1ccc(S(=O)(=O)Nc2cccc3c2O[C@H](CN(C)Cc2ccc(C(=O)Nc4ccccc4N)cc2)[C@H](C)CN([C@@H](C)CO)C3=O)cc1`, the activity change, negative = cytotoxicity is -18.8% (inactive).

The experiment is the same for the next values; noted with them: HEK293T viability, CellTiter-Glo ATP luminescence, 72 h; at 23.5 µM (top of the series).
With `O=S(=O)(c1ccc(F)cc1)N1C[C@H]2[C@@H](c3ccccc31)[C@H](CO)N2Cc1ccccc1Cl`, the activity change, negative = cytotoxicity was -5.62% (inactive).
Still for that read-out and setting: the result for `C[C@@H]1CN([C@@H](C)CO)C(=O)c2cccc(NC(=O)Nc3cccc4ccccc34)c2O[C@@H]1CN(C)Cc1ccc(C(=O)Nc2ccccc2N)cc1` reads -11.5% (inactive).

Staying with this experiment, now noted: HEK293T viability, CellTiter-Glo ATP luminescence, 72 h; at 26 µM (top of the series).
As to `CCCCNC1=CC(=O)C(=O)c2ccccc21`, the activity change, negative = cytotoxicity is -32.1% (inactive).
The same measure, in the same setting: for `COc1ccc(CNc2ncc(-c3ccc(F)cc3)n2C)c2ccccc12` the value was -13.3% (inactive); for `COc1ccc(C(=O)CN2C(=O)c3ccccc3S2(=O)=O)cc1`, -13.5% (inactive).
`CCOc1cc2[nH]c(=S)n(Cc3ccc(C(=O)NCCN(CC)CC)cc3)c(=O)c2cc1OCC`: the activity change, negative = cytotoxicity is -4.81% (inactive).
Same read-out and setting: the result for `Cc1occc1-c1n[nH]c(=S)n1C` reads -10.6% (inactive); that for `CC(=O)c1ccc(NC(=O)c2noc3c2CCC3)cc1`, -5.3% (inactive).
`COc1ccc(C2=Nn3c([n+](C)c4ccccc43)SC2)cc1`: the activity change, negative = cytotoxicity is -33.2% (inactive).
As for `COc1ccc(/C=C2\SC(=S)N(CCCC(=O)NC3CCCC3)C2=O)cc1OC`, the activity change, negative = cytotoxicity was -24.3% (inactive).
With `CC1(C(=O)NCc2ccco2)Cc2c(-c3cccc(C(N)=O)c3)ccnc2O1` (configuration not stated), the activity change, negative = cytotoxicity was -5.89% (inactive).
For `COc1cc2c(cc1OC)C(C)N(C(=O)c1cc(Cl)nc(Cl)c1)CC2` (configuration not stated), the activity change, negative = cytotoxicity was -13.4% (inactive).
For the compound `COc1ccc(Cl)cc1S(=O)(=O)Nc1ccc2c(c1)n(C)c(=O)n2C`, the activity change, negative = cytotoxicity is -13.3% (inactive).
In the case of `CCC1=Nc2cc(C(=O)NCC3CCCO3)ccc2Sc2ccc(Br)cc21` (configuration not stated), the activity change, negative = cytotoxicity was -27.1% (inactive).
With `COCc1cc(C)nc2sc(C(=O)NCCO)c(-n3cccc3)c12`, the activity change, negative = cytotoxicity was 12.7% (inactive).
For `Cc1noc(C)c1C(=O)Nc1sccc1C(N)=O`, the activity change, negative = cytotoxicity was 18% (inactive).
Consider `N#C[C@H]1[C@H](c2ccc(C#Cc3ccccc3F)cc2)[C@@H](CO)N1C(=O)C1CCOCC1`, for which the activity change, negative = cytotoxicity was -4.64% (inactive).
Same read-out and setting: for `O=C(Nc1nc(-c2ccc(F)c(F)c2)cs1)c1ccc(OCC2CCCO2)cc1` (configuration not stated) the value was -9.94% (inactive); for `CC(C)c1ccc(OCc2cccc(C(=O)N/N=C/c3cccnc3)c2)cc1`, -18.1% (inactive); for `Nc1ncn([C@@H]2O[C@H](CO)[C@@H](O)[C@H]2O)c(=O)n1`, 4.13% (inactive).
Take `CN(C)[C@@H]1CCC[C@@H]1OC(=O)C(c1ccccc1)c1ccccc1`: the activity change, negative = cytotoxicity is -11.6% (inactive).
On to `CC(C)c1ccccc1NC(=O)COC(=O)CCN1C(=O)/C(=C\C=C\c2ccccc2)SC1=S`, for which the activity change, negative = cytotoxicity was -10.7% (inactive).
On the same count and under the same terms, for `COc1ccc(C(=O)OCC(=O)Nc2ccc(Cl)c(C(F)(F)F)c2)c(OC)c1OC` the value was 6.28% (inactive); for `COc1ccccc1/C=C1\SC(=S)N(CCC(=O)Nc2cc(C)on2)C1=O`, 8.14% (inactive); for `CN(C)C(=O)c1cccc(-c2ccc(C3[C@@H]4CN(Cc5nccs5)C[C@H]3N4)cc2)c1` (some centres not stated), 51.7% (inactive).
As for `O=C(C[C@@H]1CC[C@@H]2[C@H](COC[C@@H](O)CN2S(=O)(=O)c2ccc(F)cc2)O1)NCc1ccc(Cl)c(Cl)c1`, the activity change, negative = cytotoxicity was 2.6% (inactive).
For the compound `O=c1[nH]c(=O)n([C@H]2C[C@H](O)[C@@H](CO)O2)cc1C(F)(F)F`, the activity change, negative = cytotoxicity is -10.4% (inactive).
`Cc1nc2ncccn2c1-c1csc(Nc2ccc(O)cc2)n1`: the activity change, negative = cytotoxicity was 23.7% (inactive).
Consider `COC(=O)C[C@@H]1CC[C@@H]2[C@H](COc3ccc(NC(=O)c4cc(F)cc(F)c4)cc3C(=O)N2C)O1`, for which the activity change, negative = cytotoxicity was -1.07% (inactive).
On the same count and under the same terms, for `O=C(CCCN1C(=O)/C(=C/c2ccccc2Cl)SC1=S)NNC(=O)c1ccc(Cl)cc1Cl` the value was 12.7% (inactive); for `COC(=O)C[C@@H]1CC[C@@H]2[C@H](COc3ccc(NC(=O)Nc4ccc(C#N)cc4)cc3C(=O)N2C)O1`, 46.8% (inactive); for `O=C(NC(c1ccc(F)cc1)c1ccc2ccccc2n1)C1CCN(Cc2cccc(C(F)(F)F)c2)CC1` (configuration not stated), -38.4% (inactive).
For the compound `COc1cc(OC)cc(-c2cc3nc(C)c(CCC(=O)NCc4ccccc4)c(C)n3n2)c1`, the activity change, negative = cytotoxicity was -4.7% (inactive).
On to `COC(=O)C[C@@H]1CC[C@@H]2[C@@H](COc3ccc(NC(=O)Nc4cccc(C#N)c4)cc3C(=O)N2C)O1`, for which the activity change, negative = cytotoxicity is 16.9% (inactive).
`COc1ccc(C(=O)Nc2cccc(C(=O)N/N=C/c3ccc(OC)cc3OC)c2)cc1`: the activity change, negative = cytotoxicity was -15.7% (inactive).
As to `COc1cc(/C=C/C(=O)CC(=O)/C=C/c2ccc(O)c(OC)c2)ccc1O`, the activity change, negative = cytotoxicity is -41.3% (inactive).
Take `CC(C)c1oc(=O)cc2c1[C@@H](O)[C@H]1OC(=O)[C@@]3(C)CC[C@@H](O)[C@@]2(C)C13` (some centres not stated): the activity change, negative = cytotoxicity is -27.6% (inactive).
As to `CCn1c(/C=N/NC(=O)c2ccc(OC)cc2)nc2ccccc21`, the activity change, negative = cytotoxicity was -10.9% (inactive).
As to `COc1ccc(OC)c(-c2cc(C(F)(F)F)c3c(n2)sc2c(O)cc(=O)[nH]c23)c1`, the activity change, negative = cytotoxicity was 2.36% (inactive).
Regarding `C[C@@H]1CN([C@H](C)CO)C(=O)Cc2cc(N(C)C)ccc2O[C@H]1CN(C)Cc1ccc(C(=O)Nc2ccccc2N)cc1`, the activity change, negative = cytotoxicity was -25.9% (inactive).
Consider `C[C@@H]1CN([C@H](C)CO)C(=O)c2cc(NC(=O)CCCCCC(=O)Nc3ccccc3N)ccc2O[C@H]1CN(C)S(=O)(=O)c1ccc(Cl)cc1`, for which the activity change, negative = cytotoxicity was -21.5% (inactive).
On to `O=C(/C=C/c1ccc(Cl)cc1Cl)N(Cc1ccc(Cl)cc1)C1CCS(=O)(=O)C1` (configuration not stated), for which the activity change, negative = cytotoxicity is -14.5% (inactive).
In the case of `Nc1ccn([C@@H]2O[C@H](CO)[C@@H](O)C2O)c(=O)n1` (some centres not stated), the activity change, negative = cytotoxicity is -12.5% (inactive).
As to `COc1cc2oc3cc(C#Cc4ccc(N)cc4)ccc3c(=O)c2cc1OC`, the activity change, negative = cytotoxicity is -4.88% (inactive).
The same measure, in the same setting: the result for `O=C(Cc1nn[nH]n1)c1ccccc1O` reads 1.92% (inactive); that for `O=C(O)c1ccccc1C(=O)Nc1ccc(Oc2ccc3ccccc3c2)cc1`, -15.8% (inactive); that for `COCC(=O)Nc1ccc2c(c1)[C@@H]1C[C@@H](CC(=O)NCc3ccc(-c4ccccc4)cc3)O[C@@H](CO)[C@@H]1O2`, 13.6% (inactive).
On to `Cc1cc(C(=O)Nc2ccc3c(c2)C(=O)N(C)[C@@H]2CC[C@H](CC(=O)N[C@H](C)c4ccccc4)O[C@H]2CO3)no1`, for which the activity change, negative = cytotoxicity was 8.37% (inactive).
For the compound `Cc1c(N=Cc2cc(Br)cc(Br)c2O)cccc1C(=O)O`, the activity change, negative = cytotoxicity was 6.56% (inactive).
The same measure, in the same setting: the result for `COc1ccc(C=NNc2nc3ccccc3s2)cc1` reads -21.8% (inactive); that for `O=C1C(=O)N(CCS(=O)(=O)c2ccccc2)c2ccc(Cl)cc21`, -2.19% (inactive); that for `O=C(N/N=C/c1ccc[nH]1)c1cc(-c2ccc(Cl)cc2)nc2ccccc12`, -26.6% (inactive).
Turning to `CCOc1ccc(-c2cc(CCCC(=O)N3CCN(c4ccc(OC)cc4)CC3)no2)cc1`, the activity change, negative = cytotoxicity was -8.72% (inactive).
Turning to `O=C(O)CN1C(=O)/C(=C\c2ccccc2OCc2ccc(Cl)cc2Cl)SC1=S`, the activity change, negative = cytotoxicity is 4.7% (inactive).
With `CN(C)c1ccc2c(c1)[C@@H]1C[C@@H](CC(=O)NCc3ccc(Oc4ccccc4)cc3)O[C@H](CO)[C@@H]1O2`, the activity change, negative = cytotoxicity is -15.8% (inactive).
In the case of `N#CC1=C(N)Oc2cc(N)ccc2C1c1cccc(Br)c1` (configuration not stated), the activity change, negative = cytotoxicity is -22.2% (inactive).
In the case of `COc1cc(OC)cc(-c2cc3nc(C)c(CCC(=O)O)c(C)n3n2)c1`, the activity change, negative = cytotoxicity was 11.4% (inactive).
`COc1cc2c(cc1NC(=O)CN(C)Cc1ccc(OC)c(OC)c1)oc1ccccc12`: the activity change, negative = cytotoxicity is -19.9% (inactive).
The same measure, in the same setting: the result for `C/C(=N\N(c1ccccc1)c1ccccc1)c1ccco1` reads -14.9% (inactive); that for `COc1cc(-c2noc(C)c2C#Cc2nccn2C)cc(OC)c1OC`, -11% (inactive).
Take `O=C(C1CC1)N1C[C@@H]2N[C@H](C1)C2c1ccc(/C=C/c2ccccc2)cc1` (some centres not stated): the activity change, negative = cytotoxicity is -31.7% (inactive).
For the compound `Cc1cc(Br)ccc1N=C1C(=O)Nc2ccccc21`, the activity change, negative = cytotoxicity is -16.9% (inactive).
Take `CCCCOc1ccc(NC(=O)C(=O)NCCCn2ccnc2)cc1`: the activity change, negative = cytotoxicity was -3.53% (inactive).

Source of the values: PubChem BioAssay AID720588 (Broad Institute, 2013).
